Where two headings read alike, the source gives them in different places.
Key:
[1] = biological target: MLK3 (Homo sapiens (Human), UniProt Q16584); assay: Radiometric Filter Plate MLK3 Assay; assay type: biochemical; conditions: read-out: MK3 IC50
Method: Radiometric Filter Plate MLK3 Assay
After a twenty minute incubation, the reactions were washed through filter plates and read on a scintillation counter. Results are shown in Table 4 below, in which +++ indicates ≦0.1 μM, ++ indicates >0.1 μM and ≦1 μM, and + indicates >1 μM.

[2] = Pharmacokinetic Evaluation in Mice; assay type: in vivo; set-up: unit not given here; conditions: single intravenous (IV) injection at 10 mg/kg, CL57 BL/6 mice, brain homogenate
Method: Pharmacokinetic Evaluation in Mice
Several compounds disclosed herein were evaluated in a standard murine pharmacokinetic model.
Compounds were dissolved in either 5% DMSO, 40% PEG400, and 55% saline (pH=8) or […], 40% PEG400, and 55% (20% HP-β-CD in deionized water; pH=8) to yield a nominal concentration of 2 mg/mL for intravenous administration. Compounds were administered via a single intravenous (IV) injection in CL57 BL/6 mice at 10 mg/kg in DMSO/PEG400 solution. Three mice in each group were used for blood and brain collection at each time point. Blood samples (300 μL) were collected via the retro-orbital vein predose and at 5 min, 0.25, 0.50, 1, 2, 4, 6, 8, and 24 hours postdose. Blood samples were placed into tubes containing sodium heparin and centrifuged under refrigerated conditions at 8000 rpm for 6 minutes to separate plasma from the samples. The brain of each animal was collected after the final blood collection. The whole tissue was harvested, excised and rinsed by saline, dried by filter paper, and then placed into one tube per tissue per animal. All samples were stored at −20° C. until bioanalysis.
Compound concentrations in plasma and brain homogenate were determined using a high performance liquid chromatography/mass spectrometry (HPLC/MS/MS) method (Agilent 1100 series HPLC, AB Inc. API4000 triple-quadrupole with an ESI interface and Analyst 1.4 software).
Results in the form of area under the time-versus-concentration curve (AUC) are given below in Table 5.

[3] = 200 ng (130 nM) MLK3, 1 μM inactive MKK7b, 2 μM cold ATP (Km), 33P ATP, twenty minute incubation

Sequence of MLK3 (Q16584 whole entry): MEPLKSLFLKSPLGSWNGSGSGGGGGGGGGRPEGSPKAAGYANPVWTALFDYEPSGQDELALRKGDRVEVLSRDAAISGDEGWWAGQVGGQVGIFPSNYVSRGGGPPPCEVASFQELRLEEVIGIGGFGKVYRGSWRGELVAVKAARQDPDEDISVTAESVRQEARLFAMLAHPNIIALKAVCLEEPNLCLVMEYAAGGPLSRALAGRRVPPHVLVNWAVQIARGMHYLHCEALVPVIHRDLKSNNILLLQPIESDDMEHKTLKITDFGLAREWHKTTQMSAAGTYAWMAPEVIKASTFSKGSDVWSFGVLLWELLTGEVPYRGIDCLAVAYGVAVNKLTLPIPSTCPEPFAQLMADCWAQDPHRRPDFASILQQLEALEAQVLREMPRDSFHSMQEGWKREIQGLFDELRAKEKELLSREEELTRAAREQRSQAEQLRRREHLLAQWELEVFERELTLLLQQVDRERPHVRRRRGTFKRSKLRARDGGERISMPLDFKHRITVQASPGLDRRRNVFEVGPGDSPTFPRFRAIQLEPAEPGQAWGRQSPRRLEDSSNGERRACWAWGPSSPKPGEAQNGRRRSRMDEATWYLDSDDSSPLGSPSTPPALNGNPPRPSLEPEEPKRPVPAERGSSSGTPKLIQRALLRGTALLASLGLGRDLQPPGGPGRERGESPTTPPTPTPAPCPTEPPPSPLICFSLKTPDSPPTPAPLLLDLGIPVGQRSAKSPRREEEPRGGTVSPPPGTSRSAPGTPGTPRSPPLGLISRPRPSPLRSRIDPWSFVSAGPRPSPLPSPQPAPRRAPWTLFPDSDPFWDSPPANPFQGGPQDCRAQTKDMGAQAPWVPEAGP

Structure (SMILES)	IC50 [1]	AUC Brain [2]	IC50 [1, 3]
COc1cc(-c2cnc3[nH]cc(-c4ccc5[nH]ccc5c4)c3c2)cc(OC)c1OC [Example 1, 3-(1H-indol-5-yl)-5-(3,4,5-trimethoxyphenyl)-1H-pyrrolo[2,3-b]pyridine]	100 to 1000 nM	+ (+ indicates ≧500)	–
Nc1ccc(-c2cnc3[nH]cc(-c4ccc5[nH]ccc5c4)c3c2)cn1 [Example 4, 5-(3-(1H-indol-5-yl)-1H-pyrrolo[2,3-b]pyridin-5-yl)pyridin-2-amine]	–	− (− indicates <500)	< 100 nM
Nc1ncc(-c2cnc3[nH]cc(-c4ccc5[nH]ccc5c4)c3c2)cn1 [Example 9, 5-(3-(1H-indol-5-yl)-1H-pyrrolo[2,3-b]pyridin-5-yl)pyrimidin-2-amine]	–	+ (+ indicates ≧500)	< 100 nM
COc1cc(-c2cnc3[nH]cc(-c4cnc(N)nc4)c3c2)cc(OC)c1OC [Example 17, 5-(5-(3,4,5-trimethoxyphenyl)-1H-pyrrolo[2,3-b]pyridin-3-yl)pyrimidin-2-amine]	–	− (− indicates <500)	< 100 nM
COc1cc(-c2cnc3[nH]cc(-c4ccc(N)nc4)c3c2)cc(OC)c1OC [Example 18, 5-(5-(3,4,5-trimethoxyphenyl)-1H-pyrrolo[2,3-b]pyridin-3-yl)pyridin-2-amine]	–	− (− indicates <500)	< 100 nM
CN1CCN(Cc2ccc(-c3cnc4[nH]cc(-c5ccc6[nH]ccc6c5)c4c3)cc2)CC1 [Example 32, 3-(1H-indol-5-yl)-5-(4-((4-methylpiperazin-1-yl)methyl)phenyl)-1H-pyrrolo[2,3-b]pyridine]	< 100 nM	+ (+ indicates ≧500)	–
COc1cc(-c2cnc3[nH]cc(-c4ccc(F)cc4)c3c2)cc(OC)c1OC [Example 166, 3-(4-fluoro-phenyl)-5-(3,4,5-trimethoxy-phenyl)-1H-pyrrolo[2,3-b]pyridine]	100 to 1000 nM	–	–
COc1cc(-c2cnc3[nH]cc(-c4ccc(-c5ncc[nH]5)cc4)c3c2)cc(OC)c1OC [Example 167, 3-[4-(1H-imidazol-2-yl)-phenyl]-5-(3,4,5-trimethoxy-phenyl)-1H-pyrrolo[2,3-b]pyridine]	100 to 1000 nM	–	–
